PubChem BioAssay (NCI)
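Following 48 hours of exposure in 96-well plates, responses at five concentrations were used to interpolate endpoints linearly. Here, GI50 denotes the concentration required for 50% inhibition of growth. TGI: concentration producing complete growth inhibition.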

Columns and labels:
Test in all cases: growth of human tumour cells (NCI), 48 h
786-0 renal = tested on: 786-0 renal
A498 renal = tested on: A498 renal
A549 NSCLC = tested on: A549 NSCLC
BT-549 breast = tested on: BT-549 breast
CCRF-CEM leukemia = tested on: CCRF-CEM leukemia
COLO 205 colon = tested on: COLO 205 colon
DU-145 prostate = tested on: DU-145 prostate
EKVX NSCLC = tested on: EKVX NSCLC
HCC-2998 colon = tested on: HCC-2998 colon
HCT-116 colon = tested on: HCT-116 colon
HCT-15 colon = tested on: HCT-15 colon
HL-60(TB) leukemia = tested on: HL-60(TB) leukemia
HOP-62 NSCLC = tested on: HOP-62 NSCLC
HOP-92 NSCLC = tested on: HOP-92 NSCLC
HS 578T breast = tested on: HS 578T breast
HT29 colon = tested on: HT29 colon
IGROV1 ovarian = tested on: IGROV1 ovarian
K-562 leukemia = tested on: K-562 leukemia
KM12 colon = tested on: KM12 colon
LOX IMVI melanoma = tested on: LOX IMVI melanoma
M14 melanoma = tested on: M14 melanoma
MALME-3M melanoma = tested on: MALME-3M melanoma
MCF7 breast = tested on: MCF7 breast
MDA-MB-231 breast = tested on: MDA-MB-231 breast
MDA-MB-435 = tested on: MDA-MB-435
MOLT-4 leukemia = tested on: MOLT-4 leukemia
NCI-H226 lung = tested on: NCI-H226 lung
NCI-H23 lung = tested on: NCI-H23 lung
NCI-H460 lung = tested on: NCI-H460 lung
NCI-H522 lung = tested on: NCI-H522 lung
NCI/ADR-RES ovarian = tested on: NCI/ADR-RES ovarian
OVCAR-3 ovarian = tested on: OVCAR-3 ovarian
OVCAR-4 ovarian = tested on: OVCAR-4 ovarian
OVCAR-5 ovarian = tested on: OVCAR-5 ovarian
OVCAR-8 ovarian = tested on: OVCAR-8 ovarian
PC-3 prostate = tested on: PC-3 prostate
RPMI-8226 leukemia = tested on: RPMI-8226 leukemia
RXF 393 renal = tested on: RXF 393 renal
SF-268 CNS = tested on: SF-268 CNS
SF-295 CNS = tested on: SF-295 CNS
SF-539 CNS = tested on: SF-539 CNS
SK-MEL-2 melanoma = tested on: SK-MEL-2 melanoma
SK-MEL-28 melanoma = tested on: SK-MEL-28 melanoma
SK-MEL-5 melanoma = tested on: SK-MEL-5 melanoma
SK-OV-3 ovarian = tested on: SK-OV-3 ovarian
SN12C renal = tested on: SN12C renal
SNB-19 CNS = tested on: SNB-19 CNS
SNB-75 CNS = tested on: SNB-75 CNS
SR leukemia = tested on: SR leukemia
SW-620 colon = tested on: SW-620 colon
T-47D breast = tested on: T-47D breast
TK-10 renal = tested on: TK-10 renal
U251 CNS = tested on: U251 CNS
UACC-257 melanoma = tested on: UACC-257 melanoma
UACC-62 melanoma = tested on: UACC-62 melanoma
UO-31 renal = tested on: UO-31 renal

c1ccc(-c2n(Cc3ccc4ccccc4n3)cc[n+]2Cc2ccc3ccccc3n2)cc1
GI50 (786-0 renal): 5.45 µM
TGI (786-0 renal): 18.5 µM
GI50 (A498 renal): 1.81 µM
TGI (A498 renal): 10.1 µM
GI50 (A549 NSCLC): 13.5 µM
TGI (A549 NSCLC): 51.1 µM
GI50 (BT-549 breast): 1.65 µM
TGI (BT-549 breast): 8.48 µM
GI50 (CCRF-CEM leukemia): 2.9 µM
TGI (CCRF-CEM leukemia): 14.7 µM
GI50 (COLO 205 colon): 1.41 µM
TGI (COLO 205 colon): 4.05 µM
GI50 (DU-145 prostate): 4.29 µM
TGI (DU-145 prostate): 18.5 µM
GI50 (EKVX NSCLC): 2.91 µM
TGI (EKVX NSCLC): 31.4 µM
GI50 (HCC-2998 colon): 1.93 µM
TGI (HCC-2998 colon): 11.7 µM
GI50 (HCT-116 colon): 2.06 µM
TGI (HCT-116 colon): 11.4 µM
GI50 (HCT-15 colon): 20.2 µM
TGI (HCT-15 colon): 85.6 µM
GI50 (HL-60(TB) leukemia): 0.399 µM
TGI (HL-60(TB) leukemia): 1.7 µM
GI50 (HOP-62 NSCLC): 5.66 µM
TGI (HOP-62 NSCLC): 20.8 µM
GI50 (HOP-92 NSCLC): 0.269 µM
TGI (HOP-92 NSCLC): 2.47 µM
GI50 (HS 578T breast): 2.76 µM
TGI (HS 578T breast): 14.3 µM
GI50 (HT29 colon): 2.39 µM
TGI (HT29 colon): 11.5 µM
GI50 (IGROV1 ovarian): 1.87 µM
TGI (IGROV1 ovarian): 16.4 µM
GI50 (K-562 leukemia): 0.754 µM
TGI (K-562 leukemia): 13.6 µM
GI50 (KM12 colon): 1.76 µM
TGI (KM12 colon): 10.5 µM
GI50 (LOX IMVI melanoma): 2.35 µM
TGI (LOX IMVI melanoma): 10.8 µM
GI50 (M14 melanoma): 2.35 µM
TGI (M14 melanoma): 11.5 µM
GI50 (MALME-3M melanoma): 1.57 µM
TGI (MALME-3M melanoma): 8.02 µM
GI50 (MCF7 breast): 1.87 µM
TGI (MCF7 breast): 11.1 µM
GI50 (MDA-MB-231 breast): 1.69 µM
TGI (MDA-MB-231 breast): 8.58 µM
GI50 (MDA-MB-435): 1.8 µM
TGI (MDA-MB-435): 10.2 µM
GI50 (MOLT-4 leukemia): 4.24 µM
TGI (MOLT-4 leukemia): 17.2 µM
GI50 (NCI-H226 lung): 1.76 µM
TGI (NCI-H226 lung): 9.72 µM
GI50 (NCI-H23 lung): 1.23 µM
TGI (NCI-H23 lung): 9.58 µM
GI50 (NCI-H460 lung): 2.49 µM
TGI (NCI-H460 lung): 11.9 µM
GI50 (NCI-H522 lung): 1.92 µM
TGI (NCI-H522 lung): 8.72 µM
GI50 (NCI/ADR-RES ovarian): > 100 µM
TGI (NCI/ADR-RES ovarian): > 100 µM
GI50 (OVCAR-3 ovarian): 1.05 µM
TGI (OVCAR-3 ovarian): 12.1 µM
GI50 (OVCAR-4 ovarian): 0.709 µM
TGI (OVCAR-4 ovarian): 7.02 µM
GI50 (OVCAR-5 ovarian): 5 µM
TGI (OVCAR-5 ovarian): 21.5 µM
GI50 (OVCAR-8 ovarian): 3.25 µM
TGI (OVCAR-8 ovarian): 13.9 µM
GI50 (PC-3 prostate): 2.64 µM
TGI (PC-3 prostate): 12.1 µM
GI50 (RPMI-8226 leukemia): 0.269 µM
TGI (RPMI-8226 leukemia): 5.09 µM
GI50 (RXF 393 renal): 2.8 µM
TGI (RXF 393 renal): 14 µM
GI50 (SF-268 CNS): 3.32 µM
TGI (SF-268 CNS): 14.7 µM
GI50 (SF-295 CNS): 3.22 µM
TGI (SF-295 CNS): 14.5 µM
GI50 (SF-539 CNS): 2.92 µM
TGI (SF-539 CNS): 13.2 µM
GI50 (SK-MEL-2 melanoma): 1.96 µM
TGI (SK-MEL-2 melanoma): 5.96 µM
GI50 (SK-MEL-28 melanoma): 0.983 µM
TGI (SK-MEL-28 melanoma): 12.9 µM
GI50 (SK-MEL-5 melanoma): 0.542 µM
TGI (SK-MEL-5 melanoma): 1.85 µM
GI50 (SK-OV-3 ovarian): 3.39 µM
TGI (SK-OV-3 ovarian): 11.8 µM
GI50 (SN12C renal): 2.25 µM
TGI (SN12C renal): 11.2 µM
GI50 (SNB-19 CNS): 2.18 µM
TGI (SNB-19 CNS): 13.1 µM
GI50 (SNB-75 CNS): 1.33 µM
TGI (SNB-75 CNS): 5.07 µM
GI50 (SR leukemia): 1.29 µM
TGI (SR leukemia): 13.2 µM
GI50 (SW-620 colon): 2.65 µM
TGI (SW-620 colon): 14.5 µM
GI50 (T-47D breast): 0.498 µM
TGI (T-47D breast): 7.77 µM
GI50 (TK-10 renal): 5.38 µM
TGI (TK-10 renal): 18.3 µM
GI50 (U251 CNS): 2.66 µM
TGI (U251 CNS): 12.4 µM
GI50 (UACC-257 melanoma): 1.01 µM
TGI (UACC-257 melanoma): 5.21 µM
GI50 (UACC-62 melanoma): 0.675 µM
TGI (UACC-62 melanoma): 4.17 µM
GI50 (UO-31 renal): 12.6 µM
TGI (UO-31 renal): 39.2 µM
